Assay [1] has as its target T1, Gelatinase (MMP-2) (Homo sapiens, UniProt P08253).
T1 sequence (P08253 110-660): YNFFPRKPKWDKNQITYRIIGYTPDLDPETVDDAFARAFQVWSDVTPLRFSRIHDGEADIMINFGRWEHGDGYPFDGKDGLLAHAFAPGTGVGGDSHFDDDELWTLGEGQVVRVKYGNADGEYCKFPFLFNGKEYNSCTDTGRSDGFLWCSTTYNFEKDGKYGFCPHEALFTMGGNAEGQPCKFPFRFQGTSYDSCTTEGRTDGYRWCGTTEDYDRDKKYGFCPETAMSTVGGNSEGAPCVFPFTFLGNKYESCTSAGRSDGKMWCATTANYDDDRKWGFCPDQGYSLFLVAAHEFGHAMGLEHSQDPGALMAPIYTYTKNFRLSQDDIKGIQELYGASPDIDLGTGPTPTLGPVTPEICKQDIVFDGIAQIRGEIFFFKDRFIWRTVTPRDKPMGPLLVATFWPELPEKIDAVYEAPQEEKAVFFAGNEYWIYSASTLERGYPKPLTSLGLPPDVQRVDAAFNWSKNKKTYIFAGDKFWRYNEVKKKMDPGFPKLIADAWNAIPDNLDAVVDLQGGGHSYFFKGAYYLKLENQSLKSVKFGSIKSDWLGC
The experiment in a line: Gelatinase (MMP-2) inhibitory activity, fluorogenic peptide substrate assay. In kind it is biochemical. As to conditions: substrate 5 μM, 60 min preincubation, 20-25° C.; read-out: MMP2 IC50.
Experimental: (§1) Stock solutions of inhibitors (0.03 mM-3 mM) are also prepared in DMSO. The inhibitors are diluted into the assay solutions, and the controls use an equal volume of DMSO so that the final DMSO concentration from the inhibitor and substrate dilutions in all assays is 1.0%. Assays are performed in an assay buffer (100 mM sodium chloride, 10 μM ZnCl. Sub 2, 10 mM CaCl2, 100 mM Tris-Cl pH7.5, 0.05% Brij-35), containing 1.0% DMSO from the substrate and inhibitor additions. The substrate concentration used in the assays is 5 μM. The assays are carried out at 20-25° C. […] The reaction mixtures are added in duplicate into appropriate wells of a 384-well assay plate. The reaction mixtures are preincubated with the inhibitors for 60 minutes The reactions are started by the addition of MMP substrate, and the fluorescence intensity changes are measured after 60 minutes The apparent enzyme activity in the presence of an inhibitor is then compared with that in the absence of any inhibitor to determine the inhibition effect of the inhibitor.

Assay [2] deals with Collagenase-3 (MMP-13) (Homo sapiens, UniProt P45452). The experiment in a line: Collagenase-3 (MMP-13) inhibitory activity, fluorogenic peptide substrate assay. In kind it is biochemical. As to conditions: recombinant pro-collagenase-3 activated with 1 mM APMA; read-out: MMP13 IC50.
Experimental: as §1
Collagenase-3 (MMP-13) inhibitory activity is determined as described above. Recombinant pro-collagenase-3 is activated with 1 mM APMA, and stored in the assay buffer after extensive dialysis in the assay buffer.

In the case of `CC(C)[C@H](C(=O)NO)N(CCCc1ccccc1)S(=O)(=O)c1ccc2ccc(N)cc2c1` [Example 38, 2-[(7-Amino-naphthalene-2-sulfonyl)-(3-phenyl-propyl)-amino]-N-hydroxy-3-methyl-butyramide], the IC50 in assay [1] is more than 300 nM; in assay [2], 190 nM.

`O=C(NO)[C@H]1[C@@H]2CCCC[C@@H](C2)N1S(=O)(=O)c1ccc2ccccc2c1` [Example 83, 7-(Naphthalene-2-sulfonyl)-7-aza-bicyclo[4.2.1]nonane-8-carboxylic acid hydroxyamide]: the IC50 is 770 nM in assay [1] and 135 nM in assay [2].

For `O=C(NO)[C@H]1CC=CCCN1S(=O)(=O)c1ccc2ccccc2c1` [Example 88, (R)-1-(Naphthalene-2-sulfonyl)-2,3,6,7-tetrahydro-1H-azepine-2-carboxylic acid hydroxyamide], the values for the IC50 in assay [1] and in assay [2] were 63.5 nM and 16.2 nM, respectively.

For the compound `CC(=O)Nc1ccc2cc(S(=O)(=O)N(CCC(C)C)[C@@H](C(=O)NO)C(C)C)ccc2c1` [Example 55, 2-[(6-Acetylamino-naphthalene-2-sulfonyl)-(3-methyl-butyl)-amino]-N-hydroxy-3-methyl-butyramide], the half-inhibitory concentration (IC50) was 81.3 nM in assay [1] and 3.1 nM in assay [2].

As a reminder, the IC50 is the concentration needed to halve the response being measured.

Values taken from patent US8841291B2, “Selective hydroxamic acid based MMP-12 and MMP-13 inhibitors” (Novartis AG, priority 2008, dated 2014).
